The structures appear in SMILES notation. pKi: −log10 of the molar value. Active and inactive are the calls of the source. The rule behind the calls is not given here.

System in the first experiment: not listed separately
Kind of experiment: Inhibition of Influenza A virus (A/California/07/2009(H1N1)) recombinant wild type N-terminal FLAG-tagged neuraminidase ectodomain (82 to 469 residues) transfected in Drosophila Schneider S2 cells using 4-MUNANA as substrate after 20 mins by fluorometric method.
Take `CCC(CC)O[C@@H]1C=C(P(=O)(O)O)C[C@H](N)[C@H]1NC(C)=O` [TAMIPHOSPHOR]: the pKi (usually the negative decadic logarithm of the Ki, by convention in mol/L) is 7.59. Same read-out and setting: to `CCC(CC)O[C@@H]1C=C(C(=O)O)C[C@H](NC(=N)N)[C@H]1NC(C)=O` belongs 7.34.

For the molecule `CCC(CC)O[C@@H]1C=C(P(=O)(O)O)C[C@H](NC(=N)N)[C@H]1NC(C)=O`, the pKi was 6.85.

Consider `CCC(CC)O[C@@H]1C=C(P(=O)(O)OC)C[C@H](N)[C@H]1NC(C)=O`, for which the pKi is 7.41.

The test system of a further experiment is S2. Kind of experiment: Binding affinity to Influenza A virus (A/California/07/2009(H1N1)) recombinant wild type N-terminal FLAG-tagged neuraminidase catalytic domain transfected in Drosophila Schneider S2 cells at 76 to 93 uM by isothermal titration calorimetric method. Background: In ITC the heat of successive injections is recorded.
On to `CCC(CC)O[C@@H]1C=C(P(=O)(O)O)C[C@H](N)[C@H]1NC(C)=O` [TAMIPHOSPHOR], for which the outcome was Active.

Consider `CCC(CC)O[C@@H]1C=C(C(=O)O)C[C@H](N)[C@H]1NC(C)=O` [OSELTAMIVIR CARBOXYLATE], for which the result was Active.

The record behind these values is ChEMBL document CHEMBL3856207, “Kinetic, thermodynamic and structural analysis of tamiphosphor binding to neuraminidase of H1N1 (2009) pandemic influenza” (Eur J Med Chem, 2016).
